In US5948792A, “Fluorine-containing 1,4-disubstituted piperidine derivatives” (Banyu Pharmaceutical Co., Ltd., priority 1996, dated 1999):

Columns and labels:
Muscarinic M3 Receptor [1] = biological target: T1, Muscarinic M3 Receptor (Rattus norvegicus, UniProt P08483); test: Bronchodilation in rats (i.v.), inhibition of acetylcholine-induced increase in airway resistance; format: in vivo; conditions: iv, 5 min, acetylcholine 50 μg/kg i.v. 5 minutes after test compound, read-out: Inhibition of Airway Contraction ED50 iv
T1 construct: male rats of the Sprague-Dawley strain; from tissue; host or cells: airways of living male Sprague-Dawley rats (in vivo)
T1 sequence (P08483 whole entry): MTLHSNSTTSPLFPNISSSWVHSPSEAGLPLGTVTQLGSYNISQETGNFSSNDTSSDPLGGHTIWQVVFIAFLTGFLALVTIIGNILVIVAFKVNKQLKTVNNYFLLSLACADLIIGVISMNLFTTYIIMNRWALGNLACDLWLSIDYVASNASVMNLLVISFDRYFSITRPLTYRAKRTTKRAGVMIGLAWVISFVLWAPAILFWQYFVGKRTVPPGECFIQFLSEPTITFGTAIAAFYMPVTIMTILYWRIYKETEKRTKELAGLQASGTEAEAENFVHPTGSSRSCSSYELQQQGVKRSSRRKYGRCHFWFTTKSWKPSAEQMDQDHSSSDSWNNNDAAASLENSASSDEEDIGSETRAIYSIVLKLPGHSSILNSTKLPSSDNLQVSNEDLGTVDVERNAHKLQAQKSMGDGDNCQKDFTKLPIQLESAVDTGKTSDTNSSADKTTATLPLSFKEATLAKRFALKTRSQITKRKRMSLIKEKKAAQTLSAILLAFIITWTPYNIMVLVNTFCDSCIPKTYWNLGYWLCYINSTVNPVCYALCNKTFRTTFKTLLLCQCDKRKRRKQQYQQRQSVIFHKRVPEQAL
Experimental: Tests for Antagonism Against Muscarinic M3 Receptor (in vivo)
1-A) Tests for Bronchodilation in Rats (i.v.).
Eight- to eleven-weeks-old male rats of the Sprague-Dawley strain, weighing 380-420 g, were anesthetized with urethane (750 mg/kg. i.p.) and α-chloralose (37.5 mg/kg, i.p.). The bronchus of each rat was intubated, and the right jugular vein was cannulated for drug administration. […] To evoke an increase in airway resistance, acetylcholine (50 μg/kg, i.v.) was administered to the animals. The acetylcholine-induced airway resistance increase was measured 5 minutes before and 5 minutes after administration of test compound, and the ratio of the airway resistance of the latter to the former was calculated. In controls, isotonic sodium chloride solution was used in place of the test compounds and otherwise identical procedures were repeated, the calculated ratio being set to be 100%.

airway M3 receptor = biological target: T2, airway M3 receptor (Rattus norvegicus, UniProt P08483); test: Antagonism to the airway M3 receptor in an isolated rat trachea (in vitro); format: cell-based; conditions: for Kb: isolated rat trachea, carbachol-induced contraction
T2 construct: the trachea was isolated; from tissue; host or cells: isolated trachea of male SD strain rat
T2 sequence (P08483 whole entry): as above
Experimental: Tests for Antagonism to Muscarinic Receptors (in vitro)
2) Tests for Antagonism to the Airway M3 Receptor in an Isolated Rat Trachea
These tests were performed according to a conventional method. A male SD strain rat (weighing 300-500 g) was killed by exsanguination, and the trachea was isolated. Annular segments (2 mm wide) were cut out from the trachea and cut transversely at the anterior cartilage part to make open ring preparation. A preparation was suspended in a Magnus tube filled with 5 ml of Krebs-Henseleit solution (gassed with 95% O2 -5% CO2 and kept at 32° C.) with an initial tension of 1.0 g and a resting tension of 0.6 g. The tension of the preparation was recorded isometrically. After being equilibrated for an hour, the preparation was made to contract twice by treatment with 10^-4 M carbachol, and the second contraction induced by carbachol was used as the reference contraction. After the preparation was washed with fresh solution to be restored to the base line, a test compound was administered thereto (or no treatment was given). Ten minutes later, carbachol (10^-8 to 10^-3 M) was cumulatively administered in three-fold increasing doses to obtain a dose-response curve. The dose-response curve was plotted by expressing responses as percentages based on the reference contraction of the preparation as 100%. The antagonistic potency (K^B value) of the test compound was determined from the degree of shift of the dose-response curve obtained by treatment with the test compound.

Muscarinic M3 receptor [2] = biological target: T3, Muscarinic M3 receptor (Homo sapiens, UniProt P20309); test: Inhibition of binding of [3H]-N-methylscopolamine to muscarinic M3 receptor
T3 construct: purchased Receptor Biology, Inc; host or cells: CHO cells (membranes)
T3 sequence (P20309 whole entry): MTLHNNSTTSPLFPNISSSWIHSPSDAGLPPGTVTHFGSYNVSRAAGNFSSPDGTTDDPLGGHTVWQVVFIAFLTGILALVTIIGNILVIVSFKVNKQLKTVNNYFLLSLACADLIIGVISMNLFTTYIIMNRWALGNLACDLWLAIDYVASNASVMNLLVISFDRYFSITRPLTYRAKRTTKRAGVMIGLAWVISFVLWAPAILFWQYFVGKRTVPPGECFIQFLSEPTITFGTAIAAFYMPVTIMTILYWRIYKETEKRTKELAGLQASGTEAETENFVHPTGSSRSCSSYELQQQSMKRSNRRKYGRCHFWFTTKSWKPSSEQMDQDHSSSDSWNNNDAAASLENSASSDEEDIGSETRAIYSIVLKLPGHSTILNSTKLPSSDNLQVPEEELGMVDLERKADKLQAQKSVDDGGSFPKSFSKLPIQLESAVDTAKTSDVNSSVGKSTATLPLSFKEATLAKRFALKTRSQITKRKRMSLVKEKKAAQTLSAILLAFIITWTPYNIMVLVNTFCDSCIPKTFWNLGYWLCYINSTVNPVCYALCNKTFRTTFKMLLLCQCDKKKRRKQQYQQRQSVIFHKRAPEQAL
Experimental: Tests on Inhibition of Binding to Muscarinic Receptors
These tests were performed according to a modification of the method of Hargreaves et al. (Br. J. Pharmacol. 107: 494-501, 1992). Membranes from CHO cells expressing cloned human m1-m5 (Receptor Biology, Inc.) were incubated with 0.2 nM [^3 H]-N-methylscopolamine and each a compound of the present invention to be tested in 0.5 ml of 50 mM Tris-HCl-10 mM MgCl2 -1 mM EDTA (pH 7.4) for 2 hours at 25° C. Free and membrane-bound [^3 H]-N-methylscopolamine were separated by filtration over glass filters (UniFilter-GF/C; Packard Instruments Co., Inc.) using cell harvester (Filtermate™ 196; Packard Instruments Co., Inc.). Then the filter was washed four times with 1 ml of ice-cold Tris-HCl (pH 7.4) and dried at 50° C. After adding a scintillator (Microscinti 0; Packard Instruments Co., Inc.), the radioactivity was counted by a liquid scintillation counter (TopCount™; Packard Instruments Co., Inc.). Non-specific binding was measured in the presence of 1 μM N-methylscopolamine.

SMILES	ED50 (Muscarinic M3 Receptor [1]) [mg/kg]	Kb (airway M3 receptor) [nM]	Ki (Muscarinic M3 receptor [2]; CHO cell membranes expressing cloned human receptor, 0.2 nM [3H]-N-methylscopolamine, pH 7.4, 2 hours, 25° C, read-out: Ki M3 (inhibitory effects on binding to muscarinic M3 receptor)) [nM]	M2/M3 (ratio of binding Ki) (Muscarinic M3 receptor [2]; selectivity ratio of Ki values, binding)	M2/M3 (ratio of KB) (airway M3 receptor; selectivity ratio of KB values, right atrium M2 / trachea M3)
O=C(NC1CCN(Cc2ccsc2)CC1)[C@](O)(c1ccccc1)[C@@H]1CCC(F)(F)C1 [Example 11, (2R)-N-[1-(3-thienylmethyl)piperidin-4-yl]-2-[(1R)-3,3-difluorocyclopentyl]-2-hydroxy-2-phenylacetamide]	0.032	0.95			
Cl.Cl.Nc1cccc(CN2CCC(NC(=O)[C@](O)(c3ccccc3)[C@@H]3CCC(F)(F)C3)CC2)n1 [Example 20, (2R)-N-[1-(6-aminopyridin-2-ylmethyl)piperidin-4-yl]-2-[(1R)-3,3-difluorocyclopentyl]-2-hydroxy-2-phenylacetamide dihydrochloride]	0.04	1.6	3	180	630
